{"source": "patent US20210330756A1", "about": "“Acetylation of Miro1” (University of South Carolina, priority 2020, published 2021)", "key": {"[1]": {"tested_on": "axonal mitochondrial transport in DRG neurons", "test": "FRAP of Mito-GFP in distal axons of DRG neurons", "format": "cell-based, rat", "settings": "for effect on MAG-Fc-dependent decrease in Mito-GFP recovery / mitochondrial transport: pretreatment: TubA 10 μM, Y27632 10 μM or BAPTA-AM 3 μM", "protocol": "MAG or Aggrecan exposures were performed as bath application or on coated substrates. For bath application, dissociated DRGs were cultured for 48 h and treated with 25 μg/ml of MAG-Fc (R&D Systems; 538-MG), 25 μg/ml Fc control (R&D Systems; 110-HG), or 10 μg/ml of Aggrecan (Sigma-Aldrich; A1960) for 4 h. Cultures were pretreated with either Ca^2+ chelator BAPTA-AM (3 μM; Sigma-Aldrich; A1076), ROCK inhibitor Y27632 (10 μM; Sigma-Aldrich; SCM075), HDAC6 inhibitor TubA (10 μM; R&D Systems; 6270), Thapsigargin (1 μM; Sigma-Aldrich; T9033), Rho Activator II (1 μg/ml; Cytoskeleton; CNO3), or equivalent volume DMSO 30 min before MAG-Fc, Aggrecan, or controls. For substrate-bound experiments, adult DRGs were cultured on glass bottom dishes (Greiner) that were coated with 25 μg/ml Aggrecan in addition to the laminin/poly-D-lysine substrate.\nMito-KR- and Mito-GFP-expressing DRG neurons were used for FRAP analyses at 48-72 h after transfection. To evaluate mitochondrial motility in Mito-KR-expressing neurons, Mito-KR signals were photobleached using continual exposure to an argon laser set at 594 nm for 30 s (100% laser power) The bleached ROI was then monitored for recovery using an argon laser set at 580 nm every 10 s over 16 min (13% laser power). For FRAP analyses with Mito-GFP, GFP signals were photobleached in a 50 μm ROI using an argon laser set at 488 nm every 10 s for 16 min (70% laser power). The same excitation was used for post-bleach imaging to assess recovery every 10 s for 16 min. For axon shaft FRAP experiments in Mito-GFP-expressing neurons, ROIs of ˜50 μm in length (without branches) were imaged >100 μm proximal to the growth cone. Prebleach, bleach, and post-bleach sequences were the same as for Mito-GFP above. In all cases, neurons were imaged over 40 s or more to acquire baseline Mito-KR or Mito-GFP signals before photobleaching using an argon laser (580 nm at 13% power for Mito-KR and 488 nm at 31% power for Mito-GFP).\nVesicle trafficking was quantified using differential ImageJ Difference Tracker Plug-in (Andrews et al., 2010). 50-80-μm long unbranched axon segments at approximately the mid-region between growth cone and cell body were analyzed. Kymographs were generated using ImageJ Kymograph Plug-in. For analyses of axon retraction in the CALI experiment, the distance from the distal tip of the growth cone in the pre-CALI image sequence was used as the baseline (t=1 min). The distance between the growth tip at end of the post-CALI sequence and the pre-CALI baseline was measured using LAS-X software. Movement of ≥0.5 μm toward the axon shaft was counted as retracted. Fluorescence emission of the Mito-KR post-CALI was analyzed using ImageJ. For normalizing intensities across FRAP image sets, fluorescence intensity at each time point was scaled using the LAS-X FRAP module so that the residual fluorescence signal at t=0 min (post-bleach) was set at 0 and the prebleach intensity was set at 100% for each bleached ROI. For axon shaft FRAP analyses, each 50-μm bleached ROI was divided into […], and the fluorescence intensity recovery was measured as described above. EMs at 1,900× and 4,800× magnification across the crosssectional surface of each sciatic nerve were used for in vivo analyses of mitochondrial content. A minimum of 75 unmyelinated axons was analyzed for each nerve. All unmyelinated axons from each analyzed image were included for quantitative studies. The total number of mitochondria was determined in each unmyelinated axon in the field and was divided by the total number of unmyelinated axons for all subjects. […] was determined by changes in JC-1 fluorescence. JC-1 exists either as a green fluorescent monomer at depolarized membrane potentials or as an orange-red fluorescent aggregate at hyperpolarized membrane potentials. […]"}, "Ac-histone H4": {"tested_on": "Ac-histone H4", "test": "Immunoblotting for Ac-histone H4 in adult DRG neurons (HDAC specificity)", "format": "cell-based, rat", "protocol": "We tested for this specificity in the adult DRG neurons from above by immunoblotting. […] (A) Number of mitochondria in growth cones after exposing DRG cultures to 10 μM TubA versus vehicle (control) for 1 h is shown as average fold-change in number of mitochondria per growth cone±SEM (n=13 axons across three culture preparations; *, P≤0.05 by one-way ANOVA with Bonferroni post hoc analysis). (B) Representative EMs of Remak bundles (arrowheads) in naive Sciatic nerve and nerves after 2 h vehicle (DMSO) or TubA injection are shown. Arrows indicate mitochondria in the unmyelinated axons. Note that a Schwann cell nucleus (asterisk) is seen in the Remak bundle for DMSO image but not the other two micrographs (scale bar=3 μm). (C) Quantification of number of mitochondria per unmyelinated axon from EM images as in B is shown as average±SEM (n≥5; *****, P≤0.0001 by one-way ANOVA with Bonferroni post hoc analysis). (D-F) Quantification for indicated parameters for mitochondrial transport in sciatic nerve in vivo using tetramethylrhodamine, ethyl ester, perchlorate to visualize mitochondria is shown.\nFor immunoblotting, protein lysates or immunoprecipitates were denatured by boiling in Laemmli sample buffer, fractionated by SDS-PAGE, and transferred to nitrocellulose membranes. Blots were blocked for 1 h at room temperature with 5% nonfat dry milk in TBS with 0.1% Tween 20 (TBST). Primary antibodies diluted in 5% BSA in TBST were added to the membranes and incubated overnight at 4° C. with rocking. Primary antibodies consisted of rabbit anti-Myc (1:2,000; Cell Signaling; 71D10), rabbit anti-RHOT1 antibody (1:1,000; Aviva Systems Biology; ARP44817 P050), rabbit anti-HDAC6 antibody (1:2,000; Cell Signaling; 7558), rabbit anti-ERK1 (1:5,000; Abcam; ab32537), and affinity-purified custom rabbit anti-Miro1-AcK105 (1:2,500; Twiss laboratory, see above) antibodies. For the anti-Miro1-AcK105 antibody, preimmune and test-bleed sera were used at 1:1,000 dilutions to initially evaluate for specificity. After washing in TBST, blots were incubated with HRP-conjugated anti-rabbit IgG antibodies (1:5,000; Jackson Immunoresearch) diluted in blocking buffer for 1 h at room temperature. Signals were detected using ECL Prime (GE Healthcare) after extensive washing."}}, "data": [{"smiles": "CC(=O)OCOC(=O)CN(CC(=O)OCOC(C)=O)c1ccccc1OCCOc1ccccc1N(CC(=O)OCOC(C)=O)CC(=O)OCOC(C)=O", "note": "[BAPTA-AM]", "values": [{"measurement": "basal Mito-GFP FRAP recovery after the first 5 min", "setting": "[1]; 3 μM", "value": "no different than recovery in untreated cultures"}, {"measurement": "basal Mito-GFP FRAP recovery in distal axons, first 5 min after bleach", "setting": "[1]; 3 μM", "value": "increased recovery"}, {"measurement": "effect on decrease in axonal mitochondrial transport seen upon direct activation of RhoA", "setting": "[1]; 3 μM BAPTA-AM + 1 μg/ml Rho activator, 960 s after bleach", "value": "completely abrogated the decrease in axonal mitochondrial transport"}, {"measurement": "additive or synergistic effect when combined with 10 μM TubA", "setting": "[1]; MAG-Fc, Mito-GFP FRAP", "value": "No significant additive effects"}, {"measurement": "effect on MAG-Fc-dependent decrease in Mito-GFP recovery / mitochondrial transport", "setting": "[1]; 960 s after bleach", "value": "prevented the MAG-Fc attenuation of axonal mitochondrial transport"}]}, {"smiles": "O=C(CCCN1C(=O)c2cccc3cccc(c23)C1=O)NO", "note": "[Nullscript]", "values": [{"measurement": "Ac-histone H4 levels", "setting": "Ac-histone H4; 6.3 μM", "value": "no change in Ac-histone H4 levels"}]}, {"smiles": "O=C(CCCCCN1C(=O)c2cccc3cccc(c23)C1=O)NO", "note": "[Scriptaid]", "values": [{"measurement": "Ac-histone H4 levels", "setting": "Ac-histone H4; Scriptaid, concentration not given", "value": "clear increase in Ac-histone H4 levels"}]}, {"smiles": "C[C@@H](N)[C@H]1CC[C@H](C(=O)Nc2ccncc2)CC1", "note": "[Y27632]", "values": [{"measurement": "additive or synergistic effect when combined with 3 μM BAPTA-AM", "setting": "[1]; MAG-Fc, Mito-GFP FRAP", "value": "no additive or synergistic effect"}, {"measurement": "additive or synergistic effect when combined with 10 μM TubA", "setting": "[1]; MAG-Fc, Mito-GFP FRAP", "value": "no additive or synergistic effect"}, {"measurement": "additive effect when combined with 10 μM TubA", "setting": "[1]; aggrecan 10 μg/ml, Mito-GFP FRAP", "value": "no significant additive effects"}, {"measurement": "effect on aggrecan-dependent decrease in Mito-GFP recovery", "setting": "[1]; aggrecan 10 μg/ml, TubA 10 μM or Y27632 10 μM", "value": "prevented the aggrecan dependent decrease in Mito-GFP recovery"}, {"measurement": "effect on MAG-Fc-dependent decrease in Mito-GFP recovery / mitochondrial transport", "setting": "[1]; 960 s after bleach", "value": "similarly blocked the decline in mitochondrial transport"}, {"measurement": "effect on MAG-Fc-dependent decrease in Mito-GFP recovery / mitochondrial transport", "setting": "[1]; 960 s after bleach, listed as ROCK inhibitor", "value": "similarly prevented the MAG-dependent decrease in mitochondrial transport"}]}]}
